Results on four molecules are retold here after patent publication US20240010640A1, “ANTAGONISTS OF THE MUSCARINIC ACETYLCHOLINE RECEPTOR M4” (Vanderbilt University, priority 2020, published 2024).

Broadly, the pIC50 is the negative decadic logarithm of the IC50, by convention in mol/L.

Molecules are shown by their SMILES. pIC50: −log10 of the molar value.

In test [1] the target is T1, Human M4 (Homo sapiens, UniProt P08173).
T1 construct: Human or rat M4 cDNA, along with the chimeric G protein Gqi5, were transfected into Chinese hamster ovary (CHO-K1) cells; expressed in transfected cells; host or cells: CHO-K1 (Chinese hamster ovary, ATCC), stably expressing M4 and Gqi5
T1 sequence (P08173 1-479): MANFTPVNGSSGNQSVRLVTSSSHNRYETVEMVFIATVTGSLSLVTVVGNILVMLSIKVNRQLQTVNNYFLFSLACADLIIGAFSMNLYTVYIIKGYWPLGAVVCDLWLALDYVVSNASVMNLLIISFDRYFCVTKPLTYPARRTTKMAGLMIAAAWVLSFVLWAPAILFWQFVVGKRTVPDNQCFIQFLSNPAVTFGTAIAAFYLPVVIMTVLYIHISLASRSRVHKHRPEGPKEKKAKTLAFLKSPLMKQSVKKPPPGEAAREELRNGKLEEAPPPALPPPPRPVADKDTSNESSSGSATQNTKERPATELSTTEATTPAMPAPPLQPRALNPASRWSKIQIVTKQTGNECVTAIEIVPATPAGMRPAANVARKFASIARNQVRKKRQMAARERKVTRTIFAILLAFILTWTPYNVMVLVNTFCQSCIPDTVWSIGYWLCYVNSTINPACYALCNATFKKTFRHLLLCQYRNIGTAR
The test is described as follows: mAChR M4 cell-based functional assay (calcium flux, antagonist mode). To be noted: for pIC50: Human M4/Gqi5 CHO-K1 cells, decrease of acetylcholine response; for Emin (% ACh maximum at 30 μM): Human M4. The protocol:
Human or rat M4 cDNA, along with the chimeric G protein Gqi5, were transfected into Chinese hamster ovary (CHO-K1) cells purchased from the American Type Culture Collection using Lipofectamine2000. M4/Gqi5/CHO cells were grown in Ham's F-12 medium containing 10% heat-inactivated fetal bovine serum (FBS), 20 mM HEPES, 500 μg/mL G418 sulfate, and 200 μg/mL Hygromycin B.
For high throughput measurement of agonist-evoked increases in intracellular calcium, CHO-K1 cells stably expressing muscarinic receptors were plated in growth medium lacking G418 and hygromycin at 15,000 cells/20 μL/well in Greiner 384-well black-walled, tissue culture (TC)-treated, clear-bottom plates (VWR). Cells were incubated overnight at 37° C. and 5% CO2. The next day, cells were washed using an ELX 405 (BioTek) with assay buffer; the final volume was then aspirated to 20 μL. Next, 20 μL of a 2.3 μM stock of Fluo-4/acetoxymethyl ester (Invitrogen, Carlsbad, CA), prepared as a 2.3 mM stock in DMSO and mixed in a 1:1 ratio with 10% (w/v) Pluronic F-127 and diluted in assay buffer, was added to the wells and the cell plates were incubated for 50 min at 37° C. and 5% CO2. Dye was removed by washing with the ELX 405 and the final volume was aspirated to 20 μL. Compound master plates were formatted in a 10 point concentration-response curve (CRC) format (1:3 dilutions) in 100% DMSO with a starting concentration of 10 or 1 mM using a BRAVO liquid handler (Agilent). Test compound CRCs were then transferred to daughter plates (240 nL) using the Echo acoustic plate reformatter (Labcyte, Sunnyvale, CA) and then diluted into assay buffer (40 μL) to a 2× stock using a Thermo Fisher Combi (Thermo Fisher Scientific, Waltham, MA).
Calcium flux was measured using the Functional Drug Screening System (FDSS) 6000 or 7000 (Hamamatsu Corporation, Tokyo, Japan) as an increase in the fluorescent static ratio. Compounds were applied to cells (20 μL, 2×) using the automated system of the FDSS at 2 seconds into the protocol and the data were collected at 1 Hz. At 143 s, 10 μL of an EC20 concentration of the muscarinic receptor agonist acetylcholine was added (5×), followed by the addition of 12 μL of an […] concentration of acetylcholine at the 268 s time point (5×). Agonist activity was analyzed as a concentration-dependent increase in calcium mobilization upon compound addition. Positive allosteric modulator activity was analyzed as a concentration-dependent increase in the EC20 acetylcholine response. Antagonist activity was analyzed as a concentration-dependent decrease in the EC80 acetylcholine response; for the purposes of the tables herein, an IC50 (inhibitory concentration 50) was calculated as a concentration-dependent decrease of the response elicited by an […] concentration of acetylcholine. Concentration-response curves were generated using a four-parameter logistical equation in XLFit curve fitting software (IDBS, Bridgewater, NJ) for Excel (Microsoft, Redmond, WA) or Prism (GraphPad Software, Inc., San Diego, CA) or the Dotmatics software platform (Dotmatics, Bishop's Stortford, UK).
Compounds were synthesized as described above. Activity (IC50 and Emin) was determined in the mAChR M4 cell-based functional assay as described above and the data are shown in Table 1.
In general terms: Calcium assays in cells follow changes in intracellular calcium, usually with a dye or a luminescent sensor.

Test [2] has as its system catalepsy induced by the DA receptor antagonist haloperidol. The settings on record: cited from earlier work.
The test system of test [3] is M4 knockout mice. The settings on record: but not the other four mAChR subtypes; cited from earlier work.

Turning to `Cn1cc(-c2ccc(N[C@H]3C[C@@H]4CN(CC5CCOCC5)C[C@@H]4C3)nn2)cc(F)c1=O` [A17, 3-fluoro-1-methyl-5-(6-(((3aR,5s,6aS)-2-((tetrahydro-2H-pyran-4-yl)methyl)octahydrocyclopenta[c]pyrrol-5-yl)amino)pyridazin-3-yl)pyridin-2(1H)-one], in test [1], the pIC50 was 7.89 and the “Emin (% ACh maximum at 30 μM)” value came to 3%.

Regarding `[2H]C([2H])(C1CCOCC1)N1C[C@H]2C[C@H](Nc3ccc(-c4cc(F)c(=O)n(C)c4)nn3)C[C@H]2C1` [A18, 3-fluoro-1-methyl-5-(6-(((3aR,5s,6aS)-2-((tetrahydro-2H-pyran-4-yl)methyl-d2)octahydrocyclopenta[c]pyrrol-5-yl)amino)pyridazin-3-yl)pyridin-2(1H)-one], in test [1], the pIC50 was 7.94 and the “Emin (% ACh maximum at 30 μM)” value was 4%.

As for `Cn1cccc(-c2cnc(N[C@H]3C[C@@H]4CN(CC5CCOCC5)C[C@@H]4C3)nc2)c1=O` [B1, 1-methyl-3-(2-(((3aR,5s,6aS)-2-((tetrahydro-2H-pyran-4-yl)methyl)octahydrocyclopenta[c]pyrrol-5-yl)amino)pyrimidin-5-yl)pyridin-2(1H)-one], in test [1], the pIC50 is 5.47 and the “Emin (% ACh maximum at 30 μM)” value was 10%.

As for `CN1[C@@H]2C[C@@H](OC(=O)[C@H](CO)c3ccccc3)C[C@H]1[C@@H]1O[C@@H]12` [scopolamine], the “reduction of haloperidol-induced catalepsy” value in test [2] (M4 KO mice) is on record as “ineffective”. The “reversal of haloperidol-induced catalepsy” value in test [2] (WT mice) is “completely reversed”. Further, in test [3], the locomotor-activating effects result is on record as “dramatically reduced”.
